Holding throughout (format): functional
The species named for assay [1] is Mus musculus. The assay can be described thus: Anti-oxidative activity against ALS mouse model assessed as animal survival relative to control.
Assay [2] is filed under the species Mus musculus. Description: Anti-inflammatory activity against ALS mouse model harbouring human G93A SOD1 mutant assessed as survival relative to control.
Assay [3] is filed under the species Mus musculus. Description: Effect on mitochondrial protection in ALS mouse model assessed as survival relative to control.
The target of assay [4] is Superoxide dismutase [Cu-Zn] (Homo sapiens) (UniProt P00441). The assay can be described thus: Effect on human SOD1 protein homeostasis in ALS mouse model assessed as survival relative to control.
The species named for assay [5] is Mus musculus. The assay can be described thus: Anti-oxidative activity against ALS transgenic mouse model harbouring human G93A SOD1 (B6SJL-TgN(SOD1-G93A)1Gur mutant assessed as survival relative to control.
The species entered for assay [6] is Mus musculus. The assay can be described thus: Anti-excitotoxic activity against ALS transgenic mouse model harbouring human G93A SOD1 (B6SJL-TgN(SOD1-G93A)1Gur mutant assessed as survival relative to control.
For assay [7], the species on record is Mus musculus. The assay can be described thus: Anti-inflammatory activity against ALS transgenic mouse model harbouring human G93A SOD1 (B6SJL-TgN(SOD1-G93A)1Gur mutant assessed as survival relative to control.
Assay [8] is filed under the species Mus musculus. Description: Anti-inflammatory activity against ALS mouse model assessed as animal survival relative to control.
Assay [9] is filed under the species Mus musculus. The assay can be described thus: Anti-apoptotic activity against ALS mouse model expressing human G93A SOD1 mutant assessed as survival relative to control.
The species entered for assay [10] is Mus musculus. Description: Anti-apoptotic activity against ALS mouse model assessed as animal survival relative to control.
The species entered for assay [11] is Mus musculus. The assay can be described thus: Anti-inflammatory activity against ALS B6SJLF1/J mouse model assessed as animal survival relative to control.
The species named for assay [12] is Mus musculus. Description: Anti-excitotoxic activity against ALS mouse model assessed as animal survival relative to control.

Sequence of Superoxide dismutase [Cu-Zn] (Homo sapiens) (P00441 whole entry): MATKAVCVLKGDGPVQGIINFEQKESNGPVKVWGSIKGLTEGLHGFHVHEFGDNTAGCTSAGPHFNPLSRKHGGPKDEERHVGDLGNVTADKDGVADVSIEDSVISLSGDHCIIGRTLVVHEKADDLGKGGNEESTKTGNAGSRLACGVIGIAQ

As to `C#CCN(C)Cc1ccc(O)c2ncccc12`, the Survival in the assay filed under Mus musculus [1] is on record as 6%. Turning to `CN1CCCCC1Cn1cc(C(=O)c2cc([N+](=O)[O-])ccc2I)c2ccccc21` (centres undefined), the Survival in the assay filed under Mus musculus [2] worked out at 10%. Take `CN(CC(=O)O)C(=N)N.O`: in the assay filed under Mus musculus [3], the Survival is listed as 15%. `O=C([O-])[O-].[Li+].[Li+]`: in assay [4], the Survival is 36%. Take `[O-][n+]1cccc(/C(Cl)=N/OC[C@H](O)CN2CCCCC2)c1`: the Survival in assay [4] was found to be 9%. `CC(=O)N[C@@H](CS)C(=O)O` [ACETYLCYSTEINE]: the Survival in the assay listed under Mus musculus [5] is listed as 7%. `CO/N=C(\C(=O)N[C@@H]1C(=O)N2C(C(=O)O)=C(CSc3nc(=O)c(O)nn3C)CS[C@H]12)c1csc(N)n1` [CEFTRIAXONE]: the Survival in the assay listed under Mus musculus [6] was determined as 8%. Regarding `CC1=C(O)C(=O)C=C2C1=CC=C1[C@@]2(C)CC[C@@]2(C)[C@@H]3C[C@](C)(C(=O)O)CC[C@]3(C)CC[C@]12C` [CELASTROL], in the assay listed under Mus musculus [7], the Survival is listed as 9%. With `Cc1ccc(-c2cc(C(F)(F)F)nn2-c2ccc(S(N)(=O)=O)cc2)cc1` [CELECOXIB], the Survival in the assay listed under Mus musculus [8] is recorded as 25%.

Regarding `Nc1cccc2c1CN(C1CCC(=O)NC1=O)C2=O` (centres undefined) [LENALIDOMIDE], the Survival in the assay filed under Mus musculus [7] is recorded as 18%.

As for `COc1ccc2[nH]cc(CCNC(C)=O)c2c1` [MELATONIN], in the assay filed under Mus musculus [9], the Survival is 7%. Consider `CC12CC3CC(C)(C1)CC(N)(C3)C2` [MEMANTINE], for which, in the assay filed under Mus musculus [6], the Survival is recorded as 5%. `CN(C)c1ccc(O)c2c1C[C@H]1C[C@H]3[C@H](N(C)C)C(O)=C(C(N)=O)C(=O)[C@@]3(O)C(O)=C1C2=O` [MINOCYCLINE]: the Survival in the assay filed under Mus musculus [10] was 6%. As for `COC1=C(OC)C(=O)C(CCCCCCCCCC[P+](c2ccccc2)(c2ccccc2)c2ccccc2)=C(C)C1=O.CS(=O)(=O)[O-]` [MITOQUINONE MESYLATE], the Survival in the assay listed under Mus musculus [5] came to 4%. In the case of `CC(C)CCC[C@@H](C)[C@H]1CC[C@H]2[C@@H]3CCC4=CC(=NO)CC[C@]4(C)[C@H]3CC[C@]12C` [OLESOXIME], in the assay listed under Mus musculus [3], the Survival stood at 10%. Take `CCc1ccc(CCOc2ccc(CC3SC(=O)NC3=O)cc2)nc1` (centres undefined) [PIOGLITAZONE]: in the assay filed under Mus musculus [11], the Survival came out at 8%. As for `Nc1nc2ccc(OC(F)(F)F)cc2s1` [RILUZOLE], the Survival in the assay filed under Mus musculus [12] worked out at 10%. Regarding `O=C([O-])CCCc1ccccc1.[Na+]` [SODIUM PHENYLBUTYRATE], the Survival in the assay listed under Mus musculus [10] stood at 22%.

`O=C1CCC(N2C(=O)c3ccccc3C2=O)C(=O)N1` (centres undefined) [THALIDOMIDE]: in the assay listed under Mus musculus [8], the Survival was found to be 12%.
